Structures are written as SMILES.

This note sets out measurements from patent US11260049B2, “TRPV4 antagonists” (GlaxoSmithKline Intellectual Property (No. 2) Limited, priority 2016, dated 2022).

The assay has as its target human TRPV4 (Homo sapiens (Human), UniProt Q9HBA0). The assay is described as follows: FLIPR assay for hTRPV4 expressed in BHK cells. The conditions noted are these: inhibition of Agonist Compound (EC80)-induced calcium signal; BHK/AC9 cells expressing human TRPV4; read-out: IC50. Type of assay: cell-based. On the procedure: FLIPR Assay for hTRPV4 Expressed in BHK Cells:
TRPV4 channel activation results in an influx of divalent and monovalent cations including calcium. The resulting changes in intracellular calcium were monitored using a calcium specific fluorescent dye Fluo-4 (MDS Analytical Technologies). BHK/AC9 cells transduced with BacMam virus expressing the human TRPV4 gene at a MOI of 78 were plated in a 384 well poly-D lysine coated plate (15,000 cells/well in 50 μL culture medium containing DMEM/F12 with 15 mM HEPES, 10% FBS, 1% Penicillin-Streptomycin and 1% L-glutamine). Cells were incubated for 24 hours at 37° C. and 5% CO2. Culture medium was then aspirated using a Tecan plate-washer and replaced with 20 μL/well of dye loading buffer: HBSS, 500 μM Brilliant Black (MDS Analytical Technologies), and 2 μM Fluo-4 AM. Dye loaded plates were then incubated in the dark at room temperature for 1˜1.5 hours.

human TRPV4, sequence (Q9HBA0 whole entry): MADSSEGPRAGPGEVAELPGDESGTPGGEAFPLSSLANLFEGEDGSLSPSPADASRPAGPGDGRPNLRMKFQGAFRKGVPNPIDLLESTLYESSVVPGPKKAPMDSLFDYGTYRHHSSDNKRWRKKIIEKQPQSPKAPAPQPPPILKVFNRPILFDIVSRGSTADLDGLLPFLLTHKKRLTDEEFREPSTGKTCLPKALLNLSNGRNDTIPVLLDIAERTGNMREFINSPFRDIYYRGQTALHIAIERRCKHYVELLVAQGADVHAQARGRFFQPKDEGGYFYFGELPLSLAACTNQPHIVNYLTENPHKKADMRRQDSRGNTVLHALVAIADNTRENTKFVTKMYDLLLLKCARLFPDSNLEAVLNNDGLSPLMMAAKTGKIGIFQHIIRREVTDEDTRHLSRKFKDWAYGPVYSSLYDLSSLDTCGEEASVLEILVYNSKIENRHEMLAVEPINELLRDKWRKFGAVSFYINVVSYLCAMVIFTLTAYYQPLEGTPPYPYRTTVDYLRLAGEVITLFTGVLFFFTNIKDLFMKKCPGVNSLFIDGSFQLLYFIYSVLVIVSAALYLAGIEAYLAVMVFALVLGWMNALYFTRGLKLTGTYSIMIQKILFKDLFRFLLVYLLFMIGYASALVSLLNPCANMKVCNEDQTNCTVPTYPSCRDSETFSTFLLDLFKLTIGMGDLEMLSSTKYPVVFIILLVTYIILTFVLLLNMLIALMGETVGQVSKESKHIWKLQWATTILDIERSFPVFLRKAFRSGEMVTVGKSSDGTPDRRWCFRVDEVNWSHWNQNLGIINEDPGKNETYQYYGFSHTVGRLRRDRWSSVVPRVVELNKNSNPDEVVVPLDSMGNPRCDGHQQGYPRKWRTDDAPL

As a reminder, the IC50 is the concentration needed to halve the response being measured. As for `N#Cc1ccc(S(=O)(=O)[C@H]2CN(S(=O)(=O)c3ccc(F)cc3Cl)C[C@]2(O)CO)cc1F` [Example 5, 4-(((3S,4S)-1-((2-chloro-4-fluorophenyl)sulfonyl)-4-hydroxy-4-(hydroxymethyl)pyrrolidin-3-yl)sulfonyl)-2-fluorobenzonitrile], the IC50 lay in the range of 0.01 to 0.1 µM.
Take `CCCc1ccc(S(=O)(=O)[C@H]2CN(S(=O)(=O)c3ccc(C#N)cc3Cl)C[C@@]2(O)CO)cc1` [Example 106, 3-chloro-4-(((3R,4S)-3-hydroxy-3-(hydroxymethyl)-4-((4-propylphenyl)sulfonyl)pyrrolidin-1-yl)sulfonyl)benzonitrile]: the IC50 is 0.01 to 0.1 µM.
To `N#Cc1ccc(S(=O)(=O)N2C[C@H](S(=O)(=O)c3ccc(Br)cn3)[C@](O)(CO)C2)c(Cl)c1` [Example 113, 4-(((3R,4S)-4-((5-bromopyridin-2-yl)sulfonyl)-3-hydroxy-3-(hydroxymethyl)pyrrolidin-1-yl)sulfonyl)-3-chlorobenzonitrile] belongs 0.0001 to 0.01 µM; to `N#Cc1ccc(S(=O)(=O)N2C[C@H](S(=O)(=O)c3cnc(C(F)(F)F)nc3)[C@](O)(CO)C2)c(Cl)c1` [Example 112, 3-chloro-4-(((3R,4S)-3-hydroxy-3-(hydroxymethyl)-4-((2-(trifluoromethyl)pyrimidin-5-yl)sulfonyl)pyrrolidin-1-yl)sulfonyl)benzonitrile], 0.01 to 0.1 µM.
Regarding `COc1ccc(S(=O)(=O)N2C[C@H](S(=O)(=O)c3ccc(C#N)cc3)[C@](O)(CO)C2)c(C(F)(F)F)c1` [Example 31, 4-(((3S,4R)-4-hydroxy-4-(hydroxymethyl)-1-((4-methoxy-2-(trifluoromethyl)phenyl)sulfonyl)pyrrolidin-3-yl)sulfonyl)benzonitrile], the IC50 fell in the range of 0.01 to 0.1 µM.
Then `CCc1cc(C#N)ccc1S(=O)(=O)N1C[C@H](S(=O)(=O)c2ccc(Cl)cc2)[C@](O)(CO)C1` [Example 46, 4-(((3R,4S)-4-((4-chlorophenyl)sulfonyl)-3-hydroxy-3-(hydroxymethyl)pyrrolidin-1-yl)sulfonyl)-3-ethylbenzonitrile], with 0.01 to 0.1 µM; and `N#Cc1ccc(S(=O)(=O)N2C[C@H](S(=O)(=O)c3ccc(C(F)(F)F)cn3)[C@](O)(CO)C2)c(OC2CC2)c1` [Example 61, 3-cyclopropoxy-4-(((3R,4S)-3-hydroxy-3-(hydroxymethyl)-4-((5-(trifluoromethyl)pyridin-2-yl)sulfonyl)pyrrolidin-1-yl)sulfonyl)benzonitrile], with 0.01 to 0.1 µM.
For the compound `N#Cc1ccc(S(=O)(=O)[C@H]2CN(S(=O)(=O)c3ccc(C#N)cc3Cl)C[C@@]2(O)CO)cc1` [Example 45, 3-chloro-4-(((3R,4S)-4-((4-cyanophenyl)sulfonyl)-3-hydroxy-3-(hydroxymethyl)pyrrolidin-1-yl)sulfonyl)benzonitrile], the IC50 is 0.0001 to 0.01 µM.
Then `N#Cc1ccc(S(=O)(=O)N2C[C@H](S(=O)(=O)c3ccc(C(F)(F)F)cn3)[C@](O)(CO)C2)c(Cl)c1` [Example 110, 3-chloro-4-(((3R,4S)-3-hydroxy-3-(hydroxymethyl)-4-((5-(trifluoromethyl)pyridin-2-yl)sulfonyl)pyrrolidin-1-yl)sulfonyl)benzonitrile], with 0.01 to 0.1 µM; and `N#Cc1ccc(S(=O)(=O)[C@H]2CN(S(=O)(=O)c3ccc(C(F)(F)F)cc3F)C[C@@]2(O)CO)cc1` [Example 36, 4-(((3S,4R)-1-((2-fluoro-4-(trifluoromethyl)phenyl)sulfonyl)-4-hydroxy-4-(hydroxymethyl)pyrrolidin-3-yl)sulfonyl)benzonitrile], with 0.01 to 0.1 µM.
To `N#Cc1cc(Cl)ccc1S(=O)(=O)N1C[C@H](S(=O)(=O)c2ccc(Cl)cc2)[C@](O)(CO)C1` [Example 17, 5-chloro-2-(((3R,4S)-4-((4-chlorophenyl)sulfonyl)-3-hydroxy-3-(hydroxymethyl)pyrrolidin-1-yl)sulfonyl)benzonitrile] belongs 0.0001 to 0.01 µM.
In the case of `N#Cc1ccc(S(=O)(=O)N2C[C@H](S(=O)(=O)c3ccc(C#N)c(F)c3)[C@](O)(CO)C2)c(Cl)c1` [Example 10, 4-(((3S,4R)-1-((2-chloro-4-cyanophenyl)sulfonyl)-4-hydroxy-4-(hydroxymethyl)pyrrolidin-3-yl)sulfonyl)-2-fluorobenzonitrile], the IC50 was in the range of 0.0001 to 0.01 µM.
Then `Cc1ccc(S(=O)(=O)N2C[C@H](S(=O)(=O)c3ccc(C#N)cc3)[C@](O)(CO)C2)c(Cl)c1` [Example 58, 4-(((3S,4R)-1-((2-chloro-4-methylphenyl)sulfonyl)-4-hydroxy-4-(hydroxymethyl)pyrrolidin-3-yl)sulfonyl)benzonitrile], with 0.01 to 0.1 µM; and `O=S(=O)(c1ccc(F)cc1)[C@H]1CN(S(=O)(=O)c2ccc(Cl)cc2Cl)C[C@@]1(O)CO` [Example 102, (3R,4S)-1-((2,4-dichlorophenyl)sulfonyl)-4-((4-fluorophenyl)sulfonyl)-3-(hydroxymethyl)pyrrolidin-3-ol], with 0.01 to 0.1 µM; and `N#Cc1ccc(S(=O)(=O)[C@H]2CN(S(=O)(=O)c3ccc(Cl)cc3Cl)C[C@@]2(O)CO)cc1F` [Example 83, 4-(((3S,4R)-1-((2,4-dichlorophenyl)sulfonyl)-4-hydroxy-4-(hydroxymethyl)pyrrolidin-3-yl)sulfonyl)-2-fluorobenzonitrile], with 0.0001 to 0.01 µM.
For the compound `N#Cc1ncccc1S(=O)(=O)N1C[C@H](S(=O)(=O)c2ccc(Cl)cc2)[C@](O)(CO)C1` [Example 111, 3-(((3R,4S)-4-((4-chlorophenyl)sulfonyl)-3-hydroxy-3-(hydroxymethyl)pyrrolidin-1-yl)sulfonyl)picolinonitrile], the IC50 was 0.01 to 0.1 µM.
Then `O=S(=O)(c1ccc(Cl)cc1)[C@H]1CN(S(=O)(=O)c2ccc(CF)cc2Cl)C[C@@]1(O)CO` [Example 43, (3R,4S)-1-((2-chloro-4-(fluoromethyl)phenyl)sulfonyl)-4-((4-chlorophenyl)sulfonyl)-3-(hydroxymethyl)pyrrolidin-3-ol], with 0.01 to 0.1 µM.
Then `O=S(=O)(c1ccc(Cl)cc1)[C@H]1CN(S(=O)(=O)c2ccc(C(F)(F)F)cc2Cl)C[C@@]1(O)CO` [Example 97, (3R,4S)-1-((2-chloro-4-(trifluoromethyl)phenyl)sulfonyl)-4-((4-chlorophenyl)sulfonyl)-3-(hydroxymethyl)pyrrolidin-3-ol], with 0.01 to 0.1 µM; and `N#Cc1ccc(S(=O)(=O)N2C[C@H](S(=O)(=O)c3ccc(Br)cc3)[C@](O)(CO)C2)c(Cl)c1` [Example 74, 4-(((3R,4S)-4-((4-bromophenyl)sulfonyl)-3-hydroxy-3-(hydroxymethyl)pyrrolidin-1-yl)sulfonyl)-3-chlorobenzonitrile], with 0.0001 to 0.01 µM; and `N#CCc1cc(Cl)ccc1S(=O)(=O)N1C[C@H](S(=O)(=O)c2ccc(Cl)cc2)[C@](O)(CO)C1` [Example 66, 2-(5-chloro-2-(((3R,4S)-4-((4-chlorophenyl)sulfonyl)-3-hydroxy-3-(hydroxymethyl)pyrrolidin-1-yl)sulfonyl)phenyl)acetonitrile], with 0.01 to 0.1 µM.
Then `N#Cc1ccc(S(=O)(=O)[C@H]2CN(S(=O)(=O)c3ccc(C(F)(F)F)cc3F)C[C@@]2(O)CO)cc1F` [Example 69, 2-fluoro-4-(((3S,4R)-1-((2-fluoro-4-(trifluoromethyl)phenyl)sulfonyl)-4-hydroxy-4-(hydroxymethyl)pyrrolidin-3-yl)sulfonyl)benzonitrile], with 0.01 to 0.1 µM; and `COc1ccc(S(=O)(=O)N2C[C@H](S(=O)(=O)c3ccc(C#N)cc3)[C@](O)(CO)C2)c(Br)c1` [Example 60, 4-(((3S,4R)-1-((2-bromo-4-methoxyphenyl)sulfonyl)-4-hydroxy-4-(hydroxymethyl)pyrrolidin-3-yl)sulfonyl)benzonitrile], with 0.01 to 0.1 µM.
Consider `N#Cc1ccc(S(=O)(=O)[C@H]2CN(S(=O)(=O)c3ccccc3Cl)C[C@@]2(O)CO)cc1F` [Example 11, 4-(((3S,4R)-1-((2-chlorophenyl)sulfonyl)-4-hydroxy-4-(hydroxymethyl)pyrrolidin-3-yl)sulfonyl)-2-fluorobenzonitrile], for which the IC50 lay within 0.01 to 0.1 µM.
With `N#Cc1cc(C(F)(F)F)ccc1S(=O)(=O)N1C[C@H](S(=O)(=O)c2ccc(F)c(F)c2)[C@](O)(CO)C1` [Example 93, 2-(((3R,4S)-4-((3,4-difluorophenyl)sulfonyl)-3-hydroxy-3-(hydroxymethyl)pyrrolidin-1-yl)sulfonyl)-5-(trifluoromethyl)benzonitrile], the IC50 was in the range of 0.01 to 0.1 µM.
Take `COc1cc(Br)ccc1S(=O)(=O)N1C[C@H](S(=O)(=O)c2ccc(C#N)cc2)[C@](O)(CO)C1` [Example 52, 4-(((3S,4R)-1-((4-bromo-2-methoxyphenyl)sulfonyl)-4-hydroxy-4-(hydroxymethyl)pyrrolidin-3-yl)sulfonyl)benzonitrile]: the IC50 is 0.01 to 0.1 µM.
`Cc1cc(C#N)ccc1S(=O)(=O)N1C[C@H](S(=O)(=O)c2ccc(Cl)cc2)[C@](O)(CO)C1` [Example 20, 4-(((3R,4S)-4-((4-chlorophenyl)sulfonyl)-3-hydroxy-3-(hydroxymethyl)pyrrolidin-1-yl)sulfonyl)-3-methylbenzonitrile]: the IC50 was 0.01 to 0.1 µM.
`CC(C)c1ccc(S(=O)(=O)[C@H]2CN(S(=O)(=O)c3ccc(C#N)cc3Cl)C[C@@]2(O)CO)cc1` [Example 105, 3-chloro-4-(((3R,4S)-3-hydroxy-3-(hydroxymethyl)-4-((4-isopropylphenyl)sulfonyl)pyrrolidin-1-yl)sulfonyl)benzonitrile]: the IC50 fell in the range of 0.01 to 0.1 µM.
